Earlier results on 7 compounds are cited in US12137716B2, “Methods of liver disease treatment” (priority 2015, dated 2024).

“Also recorded” adds a separate entry of the source.

For series [1], the system named is mice fed either a MCD or MD diet.
The next series deals with NASH model mice. The following applies: NASH mouse model.
A further series has as its system patients with severe ALD. The note with it: added to corticosteroids.
The conditions of series [2]: oral administration.
In series [3] the test system is rats and baboons fed ethanol.
Series [4] relates to patients with both alcoholic and non-alcoholic liver diseases. The following applies: patients with liver disease.
Series [5] deals with ethanol-induced fibrotic mouse model.
Series [6] deals with CCl (4) induced cirrhosis. The following applies: CCl4 induced.

Turning to `N=C(N)NCCC[C@H](N)C(=O)O` [Arginine], the “hepatic microcirculation and tissue oxygenation” value with patients with cirrhosis was “improves hepatic microcirculation and tissue oxygenation”.

Take `N[C@@H](CCC(=O)N[C@@H](CS)C(=O)NCC(=O)O)C(=O)O` [GSH, Glutathione]: in series [1], the “GSH in the mitochondria” value is “restored GSH in the mitochondria” and the hepatocellular injury entry is listed as “ameliorated hepatocellular injury”.

As for `C[N+](C)(C)C[C@H](O)CC(=O)[O-]` [L-Carnitine], the “progression of NASH” value in the series on NASH model mice is given as “prevents progression of NASH”.

For `CC(=O)N[C@@H](CS)C(=O)O` [NAC, N-acetylcysteine], in the series with ethanol-fed rats, the “hepatic fatty acid accumulation” value is given as “decrease hepatic fatty acid accumulation” and the inflammatory markers entry is “decrease inflammatory markers”. Further, in the series on patients with severe ALD, the “hepatorenal syndrome, infection, short-term mortality” value is “decrease hepatorenal syndrome, infection, and short-term mortality”.

As to `C[S+](CC[C@H](N)C(=O)O)C[C@H]1O[C@@H](n2cnc3c(N)ncnc32)[C@H](O)[C@@H]1O` (stereo partly drawn) [SAMe, S-adenosylmethionine], in series [2], the oral bioavailability result is recorded as “low bioavailability”. In series [1], the “GSH in the mitochondria” value is listed as “restored GSH in the mitochondria” and the hepatocellular injury entry is reported as “ameliorated hepatocellular injury”. In series [3] (ethanol-fed), the “hepatic GSH levels” value is recorded as “restored hepatic GSH levels”; the “mitochondrial lesions and leakage” value is “positive effect on mitochondrial lesions and leakage”. In series [4], the hepatic glutathione levels result is given as “significant increase; also recorded: increases hepatic GSH”. Moreover, the “oxidative stress and hepatic stellate cell activation” value in series [5] was “attenuate oxidative stress and hepatic stellate cell activation”.

On to `COc1cc(/C=C/C(=O)CC(=O)/C=C/c2ccc(O)c(OC)c2)ccc1O` [curcumin, Curcumin], for which the cirrhosis result in [6] is on record as “reverses”.

Take Phosphatidylcholine [PC]: the liver injury entry in [3] (CCl4 and ethanol-induced) is “attenuated CCI4 and ethanol-induced liver injury”. Further, the procollagen-III-peptide levels entry in the series on HBV patients was “reduced levels”. Besides, the albumin-bound hydroxyproline levels entry in the series with HCV patients is recorded as “decreased levels”.
